# Experimental data: patent US12643867B2, “Compositions and uses thereof” (University of Virginia Patent Foundation, priority 2017, dated 2026)
# Tests used:
# [1] = humans, cited from earlier work
# FER = target: T1, FER (Homo sapiens, UniProt P16591); assay: ATP acyl phosphate chemical proteomics in lung cancer cell proteomes; format: binding; conditions: 100 μM; A549 and H82 proteomes
# T1 construct: measure selectivity of compounds against native kinases detected in lung cancer proteomes; endogenous in cells; host or cells: A549 and H82 lung cancer cell proteomes
# Procedure: (§1) LC-MS analysis of SILAC samples using ATP acyl phosphates. Quantitative chemoproteomics was performed as previously described (Franks et al., 2017; McCloud et al., 2018).
# (§2) Computational Methods. Data for A549 and H82 cell lines were searched with IP2 and manually validated using the methods previously described (Franks et al., 2017). Data for Desthiobiotin-tagged ATP acyl-phosphate probes and ATP competitive peptides were compared and clustered. Ritanserin and ketanserin inhibition profiles were compared using SILAC ratios and normalized to DMSO.
# (§3) Based on previous chemical proteomics (Franks, 2017), it was hypothesized that ritanserin is functioning as a kinase inhibitor to mediate cytotoxicity in the lung cancer cell models. […] For these studies, NSCLC and SCLC cells were cultured in isotopically light and heavy amino acids to enable quantitative chemical proteomics (Chang. 2015) by stable isotope labeling with amino acids in cell culture (SILAC, FIG. 17A). […] After probe labeling, light and heavy proteomes were combined, digested with trypsin protease, and desthiobiotin-modified peptides enriched by avidin affinity chromatography and analyzed by LC-MS/MS to identify and quantify isotopically tagged active-site peptides from native kinases as previously described(Franks, 2017) (FIG. 17A).
# TLK2 = target: T2, TLK2 (Homo sapiens, UniProt Q86UE8); assay: as above; format: binding; conditions: 100 μM; A549 and H82 proteomes
# T2 construct: measure selectivity of compounds against native kinases detected in lung cancer proteomes; endogenous in cells; host or cells: A549 and H82 lung cancer cell proteomes
# Procedure: as §1, §2, §3
# [2] = target: T3, hDGKa C1 domain cysteines (Homo sapiens, UniProt P23743); assay: JWB003 labeling competition in vitro; format: binding
# T3 construct: expressed in transfected cells; host or cells: HEK293T
# Procedure: • 1. HEK293T cells were harvested in cold PBS. • a. Cells were transferred to Eppendorf tube. • 2. Cells were lysed via tip sonicator. • 3. Cells were fractionated into membrane and soluble fraction. • a. 100,000×G for 45 minutes at 4 degree. • b. Supernatant was separated from cell pellet. • 4. Dilute proteomes to 1 mg/mL in PBS and aliquot appropriate reaction volume (49 μL for probe only; 48 μL for competition+probe) • 5. Cells were treated with 50× inhibitor. • a. Incubated for 1Hr at 37 degree. • 6. Cells were treated with 50× Probe (JWB003). • a. Incubated for 1Hr at 37 degree. • 7. Add 6 μL of master mix to each alkyne probe-labeled sample. • a. 1 μL of 1.25 mM Rh-N3 • b. 1 μL of fresh 50 mM TCEP • c. 3 μL of 1.7 mM TBTA stock • d. 1 μL of 50 mM CuSO4 • 8. Vortex samples. • 9. Incubate at room temperature for 1 hr • 10. Quench with 17 μL of 4×SDS-PAGE loading buffer+βME and vortex tubes. • 11. Analyze 30 μL samples by SDS-PAGE immediately. [B] Labeling HEK293T Cells to Determine Target Proteins of JWB003 in Live Cells (In Situ) • 1. Complete media was removed from HEK293T cells and replaced with serum free media containing JWB003 at the appropriate final concentration • a. Cells were placed in incubator for appropriate time at 37 degree 5% CO2 • 2. Cells were washed • a. 2× warm PBS • b. 2× cold PBS • c. Harvest cells in cold PBS • 3. Cells were transferred to Eppendorf tube • 4. Cells were lysed via tip sonicator • 5. Cells were fractionated into membrane and soluble fraction • a. 100,000×G for 45 minutes at 4 degrees • b. Supernatant was separated from cell pellet. • 6. Dilute proteomes to 1 mg/mL and aliquot appropriate reaction volume (50 μL) • 7. Add 6 μL of master mix to each alkyne probe-labeled sample. • a. 1 μL of 1.25 mM Rh-N3 • b. 1 μL of fresh 50 mM TCEP • c. 3 μL of 1.7 mM TBTA stock • d. 1 μL of 50 mM CuSO4 • 8. Vortex samples. • 9. Incubate at room temperature for 1 hr. • 10. Quench with 17 μL of 4×SDS-PAGE loading buffer+βME and vortex tubes. • 11. Analyze 30 μL samples by SDS-PAGE immediately. [C] […]
# T3 sequence (P23743 whole entry, the tested form may be a part): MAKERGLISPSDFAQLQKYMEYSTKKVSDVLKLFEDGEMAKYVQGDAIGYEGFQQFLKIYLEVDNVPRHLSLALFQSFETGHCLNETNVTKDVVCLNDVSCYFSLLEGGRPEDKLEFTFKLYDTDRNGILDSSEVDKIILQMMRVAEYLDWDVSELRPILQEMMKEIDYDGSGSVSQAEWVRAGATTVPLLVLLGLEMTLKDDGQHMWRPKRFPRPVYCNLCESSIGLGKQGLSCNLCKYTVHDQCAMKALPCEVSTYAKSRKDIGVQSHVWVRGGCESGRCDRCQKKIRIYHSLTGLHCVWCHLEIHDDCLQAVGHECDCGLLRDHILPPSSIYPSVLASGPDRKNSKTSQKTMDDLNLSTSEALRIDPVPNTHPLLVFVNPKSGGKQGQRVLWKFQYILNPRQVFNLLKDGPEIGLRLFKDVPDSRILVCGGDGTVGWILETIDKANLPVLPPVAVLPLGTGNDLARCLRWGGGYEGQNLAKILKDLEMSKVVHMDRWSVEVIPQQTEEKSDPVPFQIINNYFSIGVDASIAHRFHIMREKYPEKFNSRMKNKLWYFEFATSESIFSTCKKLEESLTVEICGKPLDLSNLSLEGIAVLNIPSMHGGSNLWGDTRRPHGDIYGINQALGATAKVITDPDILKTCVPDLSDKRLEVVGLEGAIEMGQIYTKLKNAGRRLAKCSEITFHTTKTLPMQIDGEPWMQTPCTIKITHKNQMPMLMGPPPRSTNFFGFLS
# T1 sequence (P16591 whole entry): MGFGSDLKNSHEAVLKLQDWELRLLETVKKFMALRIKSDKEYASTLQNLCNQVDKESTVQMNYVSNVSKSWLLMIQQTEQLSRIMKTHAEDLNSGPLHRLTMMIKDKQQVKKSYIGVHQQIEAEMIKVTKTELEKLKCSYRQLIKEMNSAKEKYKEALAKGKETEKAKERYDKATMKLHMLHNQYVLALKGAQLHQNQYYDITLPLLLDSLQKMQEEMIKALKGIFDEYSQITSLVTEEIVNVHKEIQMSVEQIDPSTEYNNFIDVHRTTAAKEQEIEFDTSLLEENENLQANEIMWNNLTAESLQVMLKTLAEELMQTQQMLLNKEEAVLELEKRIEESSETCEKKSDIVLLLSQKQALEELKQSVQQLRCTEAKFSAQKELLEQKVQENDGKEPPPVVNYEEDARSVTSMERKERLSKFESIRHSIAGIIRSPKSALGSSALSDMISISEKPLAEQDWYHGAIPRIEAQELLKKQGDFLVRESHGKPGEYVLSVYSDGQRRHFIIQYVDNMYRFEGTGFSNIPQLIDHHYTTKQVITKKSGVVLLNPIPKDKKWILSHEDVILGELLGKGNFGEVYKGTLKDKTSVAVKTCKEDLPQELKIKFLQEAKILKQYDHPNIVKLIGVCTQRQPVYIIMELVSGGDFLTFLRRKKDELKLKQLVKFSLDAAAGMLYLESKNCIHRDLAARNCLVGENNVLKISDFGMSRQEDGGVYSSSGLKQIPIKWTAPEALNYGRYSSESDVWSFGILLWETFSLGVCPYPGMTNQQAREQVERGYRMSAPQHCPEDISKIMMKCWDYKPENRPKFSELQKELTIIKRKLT
# T2 sequence (Q86UE8 whole entry): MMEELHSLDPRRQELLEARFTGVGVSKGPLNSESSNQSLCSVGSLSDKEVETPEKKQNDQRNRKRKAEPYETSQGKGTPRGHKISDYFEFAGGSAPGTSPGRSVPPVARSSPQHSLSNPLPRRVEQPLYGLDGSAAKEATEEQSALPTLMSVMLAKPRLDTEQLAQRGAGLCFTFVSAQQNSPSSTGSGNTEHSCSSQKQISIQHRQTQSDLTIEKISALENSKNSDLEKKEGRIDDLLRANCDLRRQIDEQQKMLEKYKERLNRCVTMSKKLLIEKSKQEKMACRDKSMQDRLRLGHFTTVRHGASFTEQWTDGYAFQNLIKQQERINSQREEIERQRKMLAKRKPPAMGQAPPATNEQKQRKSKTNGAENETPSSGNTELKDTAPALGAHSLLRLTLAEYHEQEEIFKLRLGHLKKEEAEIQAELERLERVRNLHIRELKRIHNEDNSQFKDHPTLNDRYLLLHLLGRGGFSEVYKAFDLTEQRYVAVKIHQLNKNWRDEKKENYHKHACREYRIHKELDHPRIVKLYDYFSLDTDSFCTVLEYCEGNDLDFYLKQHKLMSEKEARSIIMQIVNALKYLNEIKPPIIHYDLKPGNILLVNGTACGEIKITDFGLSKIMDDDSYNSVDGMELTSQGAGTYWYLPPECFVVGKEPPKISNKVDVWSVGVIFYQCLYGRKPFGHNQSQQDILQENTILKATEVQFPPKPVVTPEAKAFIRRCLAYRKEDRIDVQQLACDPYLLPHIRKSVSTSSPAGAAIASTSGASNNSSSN
smiles,measurement,setting,value
Cc1nc2sccn2c(=O)c1CCN1CCC(=C(c2ccc(F)cc2)c2ccc(F)cc2)CC1 [Ritanserin],adverse side effects,[1],lack of adverse side effects
same,half-life,[1]; oral,~40 h
same,kinase target by SILAC ratio criterion,FER,most potent targets
same,kinase target by SILAC ratio criterion,TLK2,most potent targets
same,inhibition of JWB003 probe labeling of hDGKa,[2],Probe labeling is inhibited
